Values of other authors as cited in patent US20250248986A1, “ANTIFUNGAL DRUG INHALATION FORMULATIONS” (priority 2024, published 2025).
Read-outs that look alike come from different tables or passages of the source.

| Structure (SMILES) | solubility of the free base (pH of about 6.4 or higher) | water solubility (neutral conditions) | water solubility (pH 1) |
| --- | --- | --- | --- |
| CC[C@@H]([C@H](C)O)n1ncn(-c2ccc(N3CCN(c4ccc(OC[C@@H]5CO[C@@](Cn6cncn6)(c6ccc(F)cc6F)C5)cc4)CC3)cc2)c1=O [Posaconazole] | less than 1 μg/ml | – | – |
| CCC(C)n1ncn(-c2ccc(N3CCN(c4ccc(OCC5COC(Cn6cncn6)(c6ccc(Cl)cc6Cl)O5)cc4)CC3)cc2)c1=O (racemic) [Itraconazole] | – | about 1 ng/ml | about 1 μg/ml |
